Data from patent US5324722A, “2-, 3-, 5-, 8-, 10- and/or 11-substituted dibenzoxazepine compounds, pharmaceutical compositions and methods for treating pain” (G. D. Searle & Co., priority 1993, dated 1994).

Experiments:
[1] = tested on: mice; assay: Writhing Assay (PBQ-induced writhing); type: in vivo; conditions: for WRITHING ASSAY Number Out of Ten I.G. / WRITHING ASSAY Number Out of Ten S.C.: number of mice out of ten with analgesia, 30 minutes before PBQ i.p., male albino mice; for WRITHING ASSAY Number Out of Ten I.G.: 30 mg per kilogram intragastric; for WRITHING ASSAY Number Out of Ten S.C.: 30 mg per kilogram subcutaneous
Description: The Writhing Assay is one of the most widely-used experimental procedures for measuring the analgesic activity of different narcotic and nonnarcotic analgesic agents, and involves the continuous, chemically-induced pain of visceral origin to an animal, such as a mouse orrat. [Gyires et al., Arch. int. Pharmacodyn, 267, 131-140 (1984); C. Vander Wende et al., Fed. Proc., 15, 494 (1956); Koster et al., Fed. Proc., 18, 412 (1959); and Witken et al., J. Pharmacol. exp. Ther., 133, 400-408 (1961).] Chemicals which may be used to induce this pain include phenylbenzoquinone (PBQ) and acetic acid. As a result of the chemical irritation to the animal, a characteristic stretching and writhing of the animal (dorsiflexion of the animal's back, extension of its hindlimbs and the strong contraction of its abdominal musculature) will generally occur. […] Drugs which reduce the number of writhes of the animal appear to restore the normal nociceptive threshold of the animal.
Charles River male albino mice, weighing 20 to 30 grams were used in this assay.
Thirty minutes after subcutaneous or intragastric administration to ten mice of 30 mg per kilogram of body weight of a compound of the present invention ("test compound"), […] per 10 g of body weight of a 0.025% w/v solution of PBQ was injected intraperitoneally into each mouse. Ten mice which were given saline in place of a test compound of the invention were used as a control group.
Five minutes later, each mouse was individually placed into a glass beaker for observation, and the number of writhes occurring during the following ten-minute period was counted.
A test compound was considered to have produced analgesia in a mouse if, in accordance with the conditions set forth above, and under the test criteria employed for this assay, after the administration of 30 mg per kilogram of body weight of a compound of the present invention to the mouse, the number of writhes elicited by a mouse injected with PBQ was equal to, or less than, one-half the median number of writhes recorded for the saline-treated control group of mice that day, as described by Taber in "Predictive Value of Analgesic Assays in Mice and Rats," Advances in BiochemicaI Psychopharmacology, 8, 191 (1974).
The results for the particular compounds of the present invention analyzed in this assay, and discussed in the examples identified below which correspond thereto, are presented in Table 1 hereinbelow under the heading "WRITHING ASSAY." The numbers in fractions indicate the number of mice out of ten in which a test compound produced analgesia. […] (b) Prostaglandin (PGE) Antagonism Assay

[2] = target: T1, prostaglandin E2-induced contractions of segments of guinea pig ileum (Cavia porcellus, UniProt A0A286XHJ6); assay: Prostaglandin (PGE) Antagonism Assay in guinea pig ileum; type: cell-based; conditions: pA2 against prostaglandin E2-induced contractions; initial concentration 3 micromolar; estimated or by Schild plot
T1 construct: Segments of ileum about 2 cm long were then cut and mounted in a 10 mL tissue bath; from tissue; host or cells: guinea pig ileum segments
T1 sequence (A0A286XHJ6 1-405): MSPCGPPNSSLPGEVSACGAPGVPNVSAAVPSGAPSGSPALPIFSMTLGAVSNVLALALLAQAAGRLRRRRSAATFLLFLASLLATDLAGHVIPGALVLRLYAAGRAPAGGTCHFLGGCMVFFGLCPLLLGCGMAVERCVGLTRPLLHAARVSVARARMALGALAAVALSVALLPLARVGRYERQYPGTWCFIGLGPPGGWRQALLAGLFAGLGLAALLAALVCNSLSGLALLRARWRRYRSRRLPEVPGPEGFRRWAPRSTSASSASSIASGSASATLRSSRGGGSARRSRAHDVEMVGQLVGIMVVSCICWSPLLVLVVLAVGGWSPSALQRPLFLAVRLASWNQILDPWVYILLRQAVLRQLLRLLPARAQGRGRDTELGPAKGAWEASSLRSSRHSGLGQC
Procedure: In order to determine the effectiveness of several of the compounds of the present invention ("test compounds") as prostaglandin E2 antagonists,a prostaglandin antagonism assay was conducted, as described below, to determine the ability of these compounds to inhibit prostaglandin E2 -induced contractions of segments of guinea pig ileum.
Male albino guinea pigs weighing 200 to 500 grams were sacrificed by cervical dislocation. The ilea were then quickly removed from the guinea pigs and placed in a modified Tyrode solution, a solution which is known to those skilled in the art, containing one-half of the usual amount of magnesium ions.
Segments of ileum about 2 cm long were then cut and mounted in a 10 mL tissue bath containing the modified Tyrode solution. The solution was maintained at 37° C. and aerated with a gaseous mixture of 95% oxygen and 5% carbon dioxide. Data for a control prostaglandin E2 dose response curve plotting concentration of prostaglandin E2 versus the intensity of contractions, detected isotonically, was then obtained by experimentally adjusting the dose of the prostaglandin E2 being injected into the tissue bath, in a manner known by those of skill in the art.
Solutions or suspensions containing an initial concentration (3 micromolar) of a test compound in modified Tyrode solution ("test solutions/suspensions") were then separately substituted for the control bath solution. Each test solution/suspension was then kept in constant contact with the ileum tissue, except for brief periods to drain the bath in preparation for rinsing with fresh test solution/suspension. A second prostaglandin E2 dose response curve was then generated for prostaglandin E2 in the presence of a test compound.
A dose ratio of EC50 doses was then calculated from the results of each test in a manner known by those of skill in the art. A test compound was determined to be "active" if the initial concentration used yielded at least a two-fold shift (dose ratio greater than or equal to 2) in the dose response curve for 10 prostaglandin E2.

Row | Structure (SMILES) | relative analgesic potency in the Writhing Assay ([1]; among the compounds of the invention tested, 30 mg per kilogram, mice) | WRITHING ASSAY Number Out of Ten I.G. [1] | WRITHING ASSAY Number Out of Ten S.C. [1] | PGE ANTAGONISM IN GUINEA PIG ILEUM (pA2 value) [2] | Kb [2] [µM]
1 | CCS(=O)(=O)CCC(=O)NNC(=O)C1c2ccccc2Oc2ccc(Cl)cc2N1C(=O)OC(C)(C)C (stereo not drawn) [Example 7, 8-chlorodibenz[b,f][1,4]oxazepine-10,11(11H)-dicarboxylic acid, 10-(1,1-dimethylethyl) ester, 11-[2-[3-(ethylsulfonyl)-1-oxopropyl]hydrazide]] | most potent | 5/10 | 3/10 |  | 
2 | CCS(=O)(=O)CCC(=O)NNC(=O)N1c2cc(Cl)ccc2Oc2ccccc2C1C (stereo not drawn) [Example 13, 8-chloro-11-methyldibenz[b,f][1,4]oxazepine-10(11H)-carboxylic acid, 2-[3-(ethylsulfonyl)-1-oxopropyl]hydrazide] |  | 5/10 | 5/10 | 6.03 | 
3 | CCC1c2ccccc2Oc2ccc(Cl)cc2N1C(=O)NNC(=O)CCS(=O)(=O)CC (stereo not drawn) [Example 17, 8-chloro-11-ethyldibenz[b,f][1,4]oxazepine-10(11H)-carboxylic acid, 2-[3-(ethylsulfonyl)-1-oxopropyl]hydrazide] |  | 1/10 | 2/10 |  | 1.29
4 | CCCC1c2ccccc2Oc2ccc(Cl)cc2N1C(=O)NNC(=O)CCS(=O)(=O)CC (stereo not drawn) [Example 21, 8-chloro-11-propyldibenz[b,f][1,4]oxazepine-10(11H)-carboxylic acid. 2-[3-(ethylsulfonyl)-1-oxopropyl]hydrazide] |  | 3/10 | 1/10 | 5.94 | 
